The record followed here is ChEMBL document CHEMBL5528002, “Identification of selective 5-LOX and FLAP inhibitors as novel anti-inflammatory agents by ligand-based virtual screening” (Eur J Med Chem, 2024).

What all share (format): functional
Common to all, as to conditions: time 105 min, 1.75 h

Experiment [1] relates to Macrophage cell line. The experiment in a line: Effect on lipid mediator formation in human M2-like phenotype MDM cells by measuring PDX1 formation at 10 uM pre-incubated for 15 mins followed by SACM stimulation and measured after 90 mins by UPLC-MS/MS analysis (reference value: 13 +/- 3 pg/ml).
For experiment [2], the system named is Macrophage cell line. In words: Effect on lipid mediator formation in human M1-like phenotype MDM cells by measuring 15-HETE formation at 10 uM pre-incubated for 15 mins followed by SACM stimulation and measured after 90 mins by UPLC-MS/MS analysis relative to control.
The test system of experiment [3] is Macrophage cell line. In words: Effect on lipid mediator formation in human M2-like phenotype MDM cells by measuring 12-HETE formation at 10 uM pre-incubated for 15 mins followed by SACM stimulation and measured after 90 mins by UPLC-MS/MS analysis relative to control.
The test system of experiment [4] is Macrophage cell line. The experiment in a line: Effect on lipid mediator formation in human M1-like phenotype MDM cells by measuring 12-HEPE formation at 10 uM pre-incubated for 15 mins followed by SACM stimulation and measured after 90 mins by UPLC-MS/MS analysis relative to control.
Experiment [5] relates to Macrophage cell line. The experiment in a line: Effect on lipid mediator formation in human M1-like phenotype MDM cells by measuring TXB2 formation at 10 uM pre-incubated for 15 mins followed by SACM stimulation and measured after 90 mins by UPLC-MS/MS analysis relative to control.
Experiment [6] relates to Macrophage cell line. The experiment in a line: Effect on lipid mediator formation in human M2-like phenotype MDM cells by measuring PGE2 formation at 10 uM pre-incubated for 15 mins followed by SACM stimulation and measured after 90 mins by UPLC-MS/MS analysis (reference value: 159 +/- 24 pg/ml).
In experiment [7] the test system is Macrophage cell line. In words: Effect on lipid mediator formation in human M2-like phenotype MDM cells by measuring 15-HEPE formation at 10 uM pre-incubated for 15 mins followed by SACM stimulation and measured after 90 mins by UPLC-MS/MS analysis (reference value: 1385 +/- 343 pg/ml).
The subject of experiment [8] is Macrophage cell line. The experiment in a line: Effect on lipid mediator formation in human M1-like phenotype MDM cells by measuring PGF2alpha formation at 10 uM pre-incubated for 15 mins followed by SACM stimulation and measured after 90 mins by UPLC-MS/MS analysis relative to control.
The test system of experiment [9] is Macrophage cell line. The experiment in a line: Effect on lipid mediator formation in human M2-like phenotype MDM cells by measuring MaR1 formation at 10 uM pre-incubated for 15 mins followed by SACM stimulation and measured after 90 mins by UPLC-MS/MS analysis (reference value: 76 +/- 18 pg/ml).
Experiment [10] deals with Macrophage cell line. The experiment in a line: Effect on lipid mediator formation in human M2-like phenotype MDM cells by measuring EPA formation at 10 uM pre-incubated for 15 mins followed by SACM stimulation and measured after 90 mins by UPLC-MS/MS analysis relative to control.
Experiment [11] relates to Macrophage cell line. In words: Effect on lipid mediator formation in human M2-like phenotype MDM cells by measuring t-LTB4 formation at 10 uM pre-incubated for 15 mins followed by SACM stimulation and measured after 90 mins by UPLC-MS/MS analysis (reference value: 426 +/- 49 pg/ml).
The test system of experiment [12] is Macrophage cell line. In words: Effect on lipid mediator formation in human M2-like phenotype MDM cells by measuring PGD2 formation at 10 uM pre-incubated for 15 mins followed by SACM stimulation and measured after 90 mins by UPLC-MS/MS analysis relative to control.
Experiment [13] concerns Macrophage cell line. The experiment in a line: Effect on lipid mediator formation in human M2-like phenotype MDM cells by measuring PGD2 formation at 10 uM pre-incubated for 15 mins followed by SACM stimulation and measured after 90 mins by UPLC-MS/MS analysis (reference value: 48 +/- 13 pg/ml).
For experiment [14], the system named is Macrophage cell line. In words: Effect on lipid mediator formation in human M2-like phenotype MDM cells by measuring 12-HEPE formation at 10 uM pre-incubated for 15 mins followed by SACM stimulation and measured after 90 mins by UPLC-MS/MS analysis (reference value: 361 +/- 75 pg/ml).
In experiment [15] the test system is Macrophage cell line. In words: Effect on lipid mediator formation in human M2-like phenotype MDM cells by measuring 15-HETE formation at 10 uM pre-incubated for 15 mins followed by SACM stimulation and measured after 90 mins by UPLC-MS/MS analysis (reference value: 18426 +/- 5001 pg/ml).

In the case of `COc1ccc(C2=C/C(=C/c3ccc(O)cc3O)C(=O)O2)cc1`, the Activity in the experiment with Macrophage cell line [1] was 18 pg/mL; in the experiment on Macrophage cell line [2] it was 90%; in the experiment on Macrophage cell line [3], 114%; with Macrophage cell line [4], 92%; in the experiment with Macrophage cell line [5], 94%; in the experiment with Macrophage cell line [6], 412 pg/mL. The Activity in the experiment on Macrophage cell line [7] was determined as 2169 pg/mL; with Macrophage cell line [8], 89%; in the experiment with Macrophage cell line [9] it was 144 pg/mL; in the experiment on Macrophage cell line [10] it was 103%; with Macrophage cell line [11], 48 pg/mL; in the experiment on Macrophage cell line [12], 201%. In addition, the values for the Activity in the experiment with Macrophage cell line [13], in the experiment with Macrophage cell line [14] and in the experiment on Macrophage cell line [15] were 96 pg/mL, 520 pg/mL and 25017 pg/mL, respectively.

In the case of `Oc1ccc(CCC2CCC(c3ccc(O)cc3)CO2)cc1` (stereo not given), the Activity came to 15 pg/mL in the experiment on Macrophage cell line [1]; 85% with Macrophage cell line [2]; 122% with Macrophage cell line [3]; 90% in the experiment on Macrophage cell line [4]; 94% with Macrophage cell line [5]; 234 pg/mL with Macrophage cell line [6]. Also, the Activity in the experiment on Macrophage cell line [7] came out at 1937 pg/mL; with Macrophage cell line [8], 70%; in the experiment on Macrophage cell line [9] it was 81 pg/mL; with Macrophage cell line [10], 119%; with Macrophage cell line [11] it was 84 pg/mL; in the experiment on Macrophage cell line [12] it was 131%. Moreover, the results for the Activity in the experiment on Macrophage cell line [13], in the experiment on Macrophage cell line [14] and in the experiment with Macrophage cell line [15] were 62 pg/mL, 462 pg/mL and 26605 pg/mL, respectively.
